Assay results taken from PubChem BioAssay AID248 (DTP/NCI, 2004).
Where “and” joins values, the source holds several entries; their conditions need not be identical. Equal entries are not always repeated. Toxic doses and inconclusive results are not listed. Rule as the data show it: active = T/C of 150% or more; inactive = T/C below 125%.

Tested on: L1210 leukemia ip in BDF1 mice, survival T/C
Assay: NCI In Vivo Anticancer Drug Screen. Data for tumor model L1210 Leukemia (intraperitoneal) in B6D2F1 (BDF1) mice
Details: higher = longer survival
Procedure, shortened: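 Ratio derived from survival: compound-dosed mice over vehicle-dosed mice, all bearing a transplantable tumor.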

[1] = endpoint: mean survival time, dose: 100.0 mg/kg/injection, schedule: Q01DX009 (ip), vehicle: saline
[2] = endpoint: mean survival time, dose: 100.0 mg/kg/injection, schedule: Q04DX003 (ip), vehicle: saline with Tween-80
[3] = endpoint: mean survival time, dose: 200.0 mg/kg/injection, schedule: Q04DX003 (ip), vehicle: saline with Tween-80
[4] = endpoint: mean survival time, dose: 400.0 mg/kg/injection, schedule: Q04DX003 (ip), vehicle: saline with Tween-80
[5] = endpoint: mean survival time, dose: 100.0 mg/kg/injection, schedule: Q01DX001 (ip), vehicle: saline
[6] = endpoint: mean survival time, dose: 200.0 mg/kg/injection, schedule: Q01DX001 (ip), vehicle: saline
[7] = endpoint: mean survival time, dose: 400.0 mg/kg/injection, schedule: Q01DX001 (ip), vehicle: saline
[8] = endpoint: mean survival time, dose: 6.25 mg/kg/injection, schedule: Q04DX003 (ip), vehicle: saline with Tween-80
[9] = endpoint: mean survival time, dose: 50.0 mg/kg/injection, schedule: Q01DX001 (ip), vehicle: carboxymethylcellulose (CMC)
[10] = endpoint: mean survival time, dose: 50.0 mg/kg/injection, schedule: Q01DX001 (ip), vehicle: saline
[11] = endpoint: mean survival time, dose: 200.0 mg/kg/injection, schedule: Q01DX001 (ip), vehicle: carboxymethylcellulose (CMC)

Measured: T/C

O=C(Nc1ccc(Cl)c(Cl)c1)SCCSC(=O)Nc1ccc(Cl)c(Cl)c1
inactive: endpoint: mean survival time, dose: 100.0 mg/kg/injection, schedule: Q01DX001 (ip), vehicle: saline with Tween-80 107 % of control | endpoint: mean survival time, dose: 200.0 mg/kg/injection, schedule: Q01DX001 (ip), vehicle: saline with Tween-80 92 % of control | endpoint: mean survival time, dose: 400.0 mg/kg/injection, schedule: Q01DX001 (ip), vehicle: saline with Tween-80 93 % of control

CC(=O)NCC1CCC(CNC(C)=O)CC1 (centres undefined)
inactive: [1] 103 % of control | endpoint: mean survival time, dose: 100.0 mg/kg/injection, schedule: Q04DX003 (ip), vehicle: saline 100 % of control | endpoint: mean survival time, dose: 200.0 mg/kg/injection, schedule: Q01DX009 (ip), vehicle: saline 107 % of control | endpoint: mean survival time, dose: 200.0 mg/kg/injection, schedule: Q04DX003 (ip), vehicle: saline 105 % of control | endpoint: mean survival time, dose: 400.0 mg/kg/injection, schedule: Q01DX009 (ip), vehicle: saline 95 % of control | endpoint: mean survival time, dose: 400.0 mg/kg/injection, schedule: Q04DX003 (ip), vehicle: saline 100 % of control

CCCCC(CC)COc1ccc(N=C(N)N=C(N)N)cc1 (centres undefined)
inactive: endpoint: mean survival time, dose: 100.0 mg/kg/injection, schedule: Q04DX002 (ip), vehicle: saline with Tween-80 105 % of control

[I][Hg][CH2]C1COC([CH2][Hg][I])CO1 (centres undefined)
inactive: endpoint: mean survival time, dose: 6.25 mg/kg/injection, schedule: Q01DX010 (ip), vehicle: saline 98 % of control | endpoint: mean survival time, dose: 12.5 mg/kg/injection, schedule: Q01DX009 (ip), vehicle: saline 97 % of control and 100 % of control | endpoint: mean survival time, dose: 12.5 mg/kg/injection, schedule: Q01DX010 (ip), vehicle: saline 106 % of control | endpoint: mean survival time, dose: 25.0 mg/kg/injection, schedule: Q01DX009 (ip), vehicle: saline 96 % of control and 101 % of control | endpoint: mean survival time, dose: 25.0 mg/kg/injection, schedule: Q01DX010 (ip), vehicle: saline 110 % of control | endpoint: mean survival time, dose: 50.0 mg/kg/injection, schedule: Q01DX009 (ip), vehicle: saline 93 % of control and 92 % of control | endpoint: mean survival time, dose: 50.0 mg/kg/injection, schedule: Q01DX010 (ip), vehicle: saline 97 % of control | [1] 93 % of control and 97 % of control | endpoint: median survival time, dose: 12.5 mg/kg/injection, schedule: Q01DX009 (ip), vehicle: saline 93 % of control | endpoint: median survival time, dose: 25.0 mg/kg/injection, schedule: Q01DX009 (ip), vehicle: saline 93 % of control | endpoint: median survival time, dose: 50.0 mg/kg/injection, schedule: Q01DX009 (ip), vehicle: saline 93 % of control

C[N+](C)(C)Cc1c[nH]c2ccsc12
inactive: endpoint: mean survival time, dose: 12.5 mg/kg/injection, schedule: Q01DX001 (ip), vehicle: saline with Tween-80 107 % of control

COC(=O)C(C(=O)OC)=C(C(=O)OC)C(=O)OC
inactive: [2] 89 % of control | [3] 94 % of control | [4] 93 % of control

CSc1nc2cc(C)c(C)cc2[nH]1
inactive: [2] 107 % of control | [3] 94 % of control | [4] 94 % of control

Brc1nc(-c2ccccc2)c(-c2ccccc2)nc1Br
inactive: [5] 96 % of control | [6] 88 % of control | [7] 88 % of control

Cc1ccc(NC(=O)C(F)(F)C(F)(F)C(F)(F)F)cc1
inactive: [5] 89 % of control | [6] 97 % of control | [7] 105 % of control

Nn1c(=O)[nH][nH]c1=O
inactive: endpoint: mean survival time, dose: 100.0 mg/kg/injection, schedule: Q01DX009 (ip), vehicle: Klucel (hydroxypropylcellulose) (HPC) 113 % of control | endpoint: mean survival time, dose: 100.0 mg/kg/injection, schedule: Q04DX003 (ip), vehicle: Klucel (hydroxypropylcellulose) (HPC) 97 % of control and 109 % of control | endpoint: mean survival time, dose: 200.0 mg/kg/injection, schedule: Q01DX009 (ip), vehicle: Klucel (hydroxypropylcellulose) (HPC) 97 % of control | endpoint: mean survival time, dose: 200.0 mg/kg/injection, schedule: Q04DX003 (ip), vehicle: Klucel (hydroxypropylcellulose) (HPC) 105 % of control and 91 % of control | endpoint: mean survival time, dose: 400.0 mg/kg/injection, schedule: Q04DX003 (ip), vehicle: Klucel (hydroxypropylcellulose) (HPC) 109 % of control

CS(=O)(=O)OCCF
inactive: endpoint: mean survival time, dose: 0.25 mg/kg/injection, schedule: Q01DX009 (ip), vehicle: saline 101 % of control | endpoint: mean survival time, dose: 0.5 mg/kg/injection, schedule: Q01DX009 (ip), vehicle: saline 103 % of control | endpoint: mean survival time, dose: 1.0 mg/kg/injection, schedule: Q01DX009 (ip), vehicle: saline 103 % of control | endpoint: mean survival time, dose: 2.5 mg/kg/injection, schedule: Q01DX009 (ip), vehicle: carboxymethylcellulose (CMC) 103 % of control | endpoint: mean survival time, dose: 2.5 mg/kg/injection, schedule: Q01DX009 (ip), vehicle: saline 103 % of control | endpoint: mean survival time, dose: 5.0 mg/kg/injection, schedule: Q01DX009 (ip), vehicle: carboxymethylcellulose (CMC) 108 % of control | [8] 114 % of control | endpoint: mean survival time, dose: 9.0 mg/kg/injection, schedule: Q01DX009 (ip), vehicle: saline 92 % of control | endpoint: mean survival time, dose: 10.5 mg/kg/injection, schedule: Q01DX015 (ip), vehicle: saline 97 % of control | endpoint: mean survival time, dose: 10.8 mg/kg/injection, schedule: Q01DX015 (ip), vehicle: saline 100 % of control | endpoint: mean survival time, dose: 12.5 mg/kg/injection, schedule: Q01DX001 (ip), vehicle: acetone 103 % of control | endpoint: mean survival time, dose: 12.5 mg/kg/injection, schedule: Q01DX009 (ip), vehicle: acetone 106 % of control | endpoint: mean survival time, dose: 18.0 mg/kg/injection, schedule: Q01DX015 (ip), vehicle: saline 114 % of control | endpoint: mean survival time, dose: 20.0 mg/kg/injection, schedule: Q01DX009 (ip), vehicle: carboxymethylcellulose (CMC) 87 % of control | endpoint: mean survival time, dose: 25.0 mg/kg/injection, schedule: Q01DX001 (ip), vehicle: acetone 116 % of control | endpoint: mean survival time, dose: 25.0 mg/kg/injection, schedule: Q01DX001 (ip), vehicle: saline 94 % of control | endpoint: mean survival time, dose: 30.0 mg/kg/injection, schedule: Q01DX001 (ip), vehicle: saline 98 % of control | endpoint: mean survival time, dose: 30.0 mg/kg/injection, schedule: Q01DX015 (ip), vehicle: saline 113 % of control and 91 % of control | endpoint: mean survival time, dose: 44.0 mg/kg/injection, schedule: Q01DX001 (ip), vehicle: saline 106 % of control and 122 % of control | endpoint: mean survival time, dose: 50.0 mg/kg/injection, schedule: Q01DX001 (ip), vehicle: acetone 103 % of control | [9] 117 % of control | [10] 102 % of control and 109 % of control | [11] 97 % of control | [7] 87 % of control

COC(=O)C(Br)(C(=O)OC)C(c1ccccc1)c1ccccc1
inactive: endpoint: mean survival time, dose: 100.0 mg/kg/injection, schedule: Q04DX002 (ip), vehicle: other 90 % of control | endpoint: mean survival time, dose: 200.0 mg/kg/injection, schedule: Q04DX002 (ip), vehicle: other 86 % of control | endpoint: mean survival time, dose: 400.0 mg/kg/injection, schedule: Q04DX002 (ip), vehicle: other 93 % of control

O=C1/C=C2/C=CC=CN2C(=O)/C=C2/C=CC=CN12
inactive: [10] 104 % of control | [5] 101 % of control | [6] 104 % of control | [7] 97 % of control

O=S1(=O)CC(Cl)C1
inactive: [9] 107 % of control | endpoint: mean survival time, dose: 100.0 mg/kg/injection, schedule: Q01DX001 (ip), vehicle: carboxymethylcellulose (CMC) 89 % of control | [11] 97 % of control

COc1ccc(C=NCCN=Cc2ccc(OC)cc2OC)c(OC)c1
inactive: endpoint: mean survival time, dose: 6.25 mg/kg/injection, schedule: Q01DX009 (ip), vehicle: saline with Tween-80 97 % of control | [8] 98 % of control | endpoint: mean survival time, dose: 12.5 mg/kg/injection, schedule: Q01DX009 (ip), vehicle: saline with Tween-80 87 % of control | endpoint: mean survival time, dose: 12.5 mg/kg/injection, schedule: Q04DX003 (ip), vehicle: saline with Tween-80 91 % of control | endpoint: mean survival time, dose: 25.0 mg/kg/injection, schedule: Q01DX009 (ip), vehicle: saline with Tween-80 87 % of control | endpoint: mean survival time, dose: 25.0 mg/kg/injection, schedule: Q04DX003 (ip), vehicle: saline with Tween-80 95 % of control
